Results on four molecules are retold here after US12630600B2 (MEDIMMUNE LIMITED, priority 2022, dated 2026).

One assay relates to GLP-1R knockout mice. Nature of the assay: Glucose change in GLP-1R knockout mice. It is filed as in vivo, mouse. As to conditions: GLP-1R KO mice, s.c., no somatostatin pretreatment. As for the experimental part: (§1) They acclimated for a minimum of ˜1-2 weeks, and mice were sorted into groups (n=4-8/group) based on body weight. On day of study, mice were fasted briefly for 2 hrs prior to study start. In some studies, mice were pre-treated with octreotide (BaChem, 10 mg/kg) at 30 minutes prior to peptide injection. Glucose was measured via glucometer at various timepoints including −30 min (prior to octreotide when used in studies), 0 min (before peptide dose), 30, 60, 120, 180, 240, and 360 minutes. Since these studies are acute in nature, mice were re-used for multiple studies (no more than 3) and always allowed at least a minimum wash-out period of 1 week.

The test system of another assay is wildtype (WT) mice. Put plainly: Glucose change in wildtype mice. It is filed as in vivo, mouse. The note with it: s.c., no somatostatin pretreatment. As for the experimental part: as §1, with “[…] and wildtype (WT) mice at 8-14 weeks of age were singly housed on standard chow diet (Envigo, 2918) and automatic water. They” for “They”
Another assay concerns Male C57Bl/6 mice. Nature of the assay: Mouse acute food intake study. It is filed as in vivo. As to conditions: s.c., food intake at 24 h vs vehicle. As for the experimental part: Male C57Bl/6 mice obtained from Jackson Laboratories or Charles River at 8-9 weeks of age and were housed one per cage in BioDaq (Research Diets) cages. Mice were placed on Alpha Dri bedding, standard chow diet (Envigo, 2018) and given water pouches. Mice were allowed to acclimate for 1-2 weeks. Body weight was measured to ensure appropriate acclimation. After acclimation, mice were sham dosed a minimum of 2 times prior to initiation of food intake study. On study day, mice were placed in clean cage bottoms, weighed, and fasted for 6-8 hours. Mice were sorted into groups based on average 24-hour food intake data and body weight. 1-2 hours prior to lights out, mice were dosed subcutaneously with one vehicle or test peptide dissolved in an appropriate vehicle at 5 mL/kg. Mice were left undisturbed and allowed access to food and water for 48 hours. Automated food intake was monitored in the BioDaq system was monitored during this time. Discrete food intake data was exported into MS Excel from which cumulative food intake data was generated and analyzed.

The target of another assay is human glucagon receptor (human, UniProt P47871). Put plainly: cell-based or functional assay.
The target of a further assay is human GLP-1 receptor (human, UniProt P43220). Nature of the assay: cell-based or functional assay.

Where “and” joins values, the source holds several entries; their conditions need not be identical. Equal entries are not always repeated. Starred links: 1 amine or outer side, 2 acyl side, 3 side chain; linkers in the order of their positions; H or OH if unused. Non-standard residues stand in square brackets, D forms with d. Residues, ends and D or L forms follow the SMILES beside them. Groups on a side chain read outwards from the residue. No end group written: not given here. *: point of attachment. C20 diacid = O=C(O)CCCCCCCCCCCCCCCCCCC(=O)*; C18 diacid = O=C(O)CCCCCCCCCCCCCCCCC(=O)*; γGlu = O=C(O)[C@H](CCC(=O)[*:2])N[*:1]; αMeF = C[C@](N)(Cc1ccccc1)C(=O)O; AEEA = NCCOCCOCC(=O)O; Aib = CC(C)(N)C(=O)O

For the molecule `CC(C)C[C@H](NC(=O)[C@H](Cc1c[nH]c2ccccc12)NC(=O)[C@H](CCC(N)=O)NC(=O)[C@@H](NC(=O)[C@H](Cc1ccccc1)NC(=O)[C@H](CC(=O)O)NC(=O)[C@H](CCCNC(=N)N)NC(=O)[C@H](C)NC(=O)[C@H](CCCNC(=N)N)NC(=O)[C@H](CCCCNC(=O)COCCOCCNC(=O)COCCOCCNC(=O)CC[C@H](NC(=O)CCCCCCCCCCCCCCCCC(=O)O)C(=O)O)NC(=O)[C@@H](NC(=O)[C@H](CC(=O)O)NC(=O)[C@H](CC(C)C)NC(=O)[C@](C)(Cc1ccccc1)NC(=O)[C@H](CCCCN)NC(=O)[C@H](CO)NC(=O)[C@@H](NC(=O)[C@H](CC(=O)O)NC(=O)[C@H](CO)NC(=O)[C@@H](NC(=O)[C@H](Cc1ccccc1)NC(=O)[C@@H](NC(=O)CNC(=O)[C@H](CCC(N)=O)NC(=O)C(C)(C)NC(=O)[C@@H](N)Cc1c[nH]cn1)[C@@H](C)O)[C@@H](C)O)C(C)C)[C@@H](C)O)C(C)C)C(=O)N[C@@H](CC(C)C)C(=O)N[C@@H](CCC(=O)O)C(=O)NC(C)(C)C(=O)NCC(=O)O` [Peptide 188, H-Aib-Q-G-T-F-T-S-D-V-S-K-αMePhe-L-D-T-K-R-A-R-D-F-V-Q-W-L-L-E-Aib-G-acid], the “GLP-1R KO % glucose change −60 min” value in the assay on GLP-1R knockout mice (10 nmol/kg) was determined as 64%.
Turning to `CC[C@H](C)[C@H](NC(=O)[C@H](Cc1c[nH]c2ccccc12)NC(=O)[C@H](CCC(N)=O)NC(=O)[C@@H](NC(=O)[C@H](Cc1ccccc1)NC(=O)[C@H](CC(=O)O)NC(=O)[C@H](CCCCNC(=O)COCCOCCNC(=O)COCCOCCNC(=O)CC[C@H](NC(=O)CC[C@H](NC(=O)CCCCCCCCCCCCCCCCCCC(=O)O)C(=O)O)C(=O)O)NC(=O)[C@H](C)NC(=O)[C@H](C)NC(=O)[C@H](CCCNC(=N)N)NC(=O)[C@H](CO)NC(=O)[C@H](CC(=O)O)NC(=O)[C@H](CC(C)C)NC(=O)[C@H](Cc1ccc(O)cc1)NC(=O)[C@H](CCCCN)NC(=O)[C@H](CO)NC(=O)[C@@H](NC(=O)[C@H](CC(=O)O)NC(=O)[C@H](CO)NC(=O)[C@@H](NC(=O)[C@](C)(Cc1ccccc1)NC(=O)[C@H](CO)NC(=O)CNC(=O)[C@H](Cc1c[nH]cn1)NC(=O)C(C)(C)NC(=O)[C@@H](N)Cc1c[nH]cn1)[C@@H](C)O)C(C)C)C(C)C)C(=O)N[C@@H](C)C(=O)N[C@@H](CC(N)=O)C(=O)N[C@H](C(N)=O)[C@@H](C)O` [Peptide 289] (H-H[Aib]HGS[αMeF]TSDVSKYLDSRAAK([AEEA-AEEA-γGlu-γGlu-C20 diacid])DFVQWIANT-NH2; N-terminus assumed), in the assay with wildtype (WT) mice (10 nmol/kg), the “WT % glucose change 120 min” value was −8.5%. For the same molecule, the figures for the “GLP-1R KO % glucose change 120 min” value with GLP-1R knockout mice (10 nmol/kg) and in the assay with GLP-1R knockout mice (30 nmol/kg) were 8.9% and 7.7%, respectively.
On to “H-Aib-Q-G-T-F-T-S-D-V-S-K-αMePhe-L-D-T-K-R-A-R-D-F-V-Q-W-L-L-E-Aib-G-acid [Peptide 195]”, for which the “24 hr % Vehicle Food Intake” value in the assay with Male C57Bl/6 mice (dose 1 nmol/kg) is 102.1%; with Male C57Bl/6 mice (dose 3 nmol/kg), 84.0%; in the assay with Male C57Bl/6 mice (dose 10 nmol/kg), 58.2% and 49.9%. The “WT % glucose change 60 min” value in the assay with wildtype (WT) mice (10 nmol/kg) is 1.4%; with wildtype (WT) mice (30 nmol/kg), −17.0%. For the same molecule, the “GLP-1R KO % glucose change −60 min” value in the assay on GLP-1R knockout mice (10 nmol/kg) was found to be 35.3%; in the assay with GLP-1R knockout mice (30 nmol/kg) it was 48.0%.
For the molecule H[Aib]HGS[αMeF]TSDVSK[αMeF]LDSRAAQD[αMeF]VK([AEEA-AEEA-γGlu-C18 diacid])SIANT-NH2 (not fully specified) [Peptide 379], the “hGluc-R EC50 (pM)” value with human glucagon receptor came out at 85.7 pM. Further, the “hGLP-1R EC50 (pM)” value in the assay with human GLP-1 receptor stood at 71.8 pM.
